From ChEMBL document CHEMBL4052825, “Identification of Novel Coumestan Derivatives as Polyketide Synthase 13 Inhibitors against Mycobacterium tuberculosis” (J Med Chem, 2018)
Converted amounts (≈) assume the structure as drawn.

Assays:
[1] = system: Mycobacterium tuberculosis; assay: Antitubercular activity against resistant Mycobacterium tuberculosis harboring PKS13 mutant after 12 to 24 hrs by MABA; type: functional
[2] = Selectivity ratio of MIC=<90 for resistant Mycobacterium tuberculosis harboring PKS13 mutant to MIC=<90 for Mycobacterium tuberculosis H37Rv
[3] = system: Mycobacterium tuberculosis; assay: Antitubercular activity against isoniazid/rifampicin/fluoroquinolone-resistant Mycobacterium tuberculosis; type: functional

Compound | MIC=<90 [1] [µg/mL] | Selectivity ratio [2] | MIC [3] [µM]
CCOC(=O)c1c(-c2ccc(F)cc2)oc2ccc(O)c(CN3CCCCC3)c12 | 4 (≈ 10.1 µM) | 8 | –
O=c1oc2ccccc2c2oc3ccc(O)c(CN4CCCCC4)c3c12 | 16 (≈ 45.8 µM) | 64 to 128 | –
COc1ccc2c(c1)oc(=O)c1c2oc2ccc(O)c(CN3CCCCC3)c21 | 16 (≈ 42.2 µM) | 64 | –
CCOC(=O)c1c(NC(=O)c2c(F)c(F)c(F)c(F)c2F)sc2c1CCN(CC)C2 | – | – | 0.2 to 0.4 (≈ 0.0897 to 0.179 µg/mL)
